Measurements reported in publication PMC10390775, “CETP inhibitor evacetrapib enters mouse brain tissue” (Frontiers in Pharmacology, 2023).

Assays:
[1] = set-up: method as in Small et al., 2015; conditions: ref Small et al., 2015; cited from earlier work
[2] = Semi-PBPK three-compartment model of distribution to the brain; set-up: species or system mice
Description: A semi-physiological-based pharmacokinetic (PBPK) model was developed to obtain more mechanistic information on the distribution of evacetrapib in the brain. First, a two-compartmental model (i.e., a plasma and a peripheral compartment) with a first-order elimination rate was fitted to describe the kinetics of the compound in plasma ([Mukherjee, 2022]) (Figure 1). Second, a third compartment was added and connected to the plasma compartment (Figure 1). The brain compartment was subdivided into vascular and tissue sub-compartments, with mass balance differential equations describing a distribution in the tissue that can be limited by diffusion as follows ([Shen, 2010]): dABrT/dt=PA∙CBrP−PA∙CBrT/PBr, (9) CBrT=ABrT/VBr1−VBrVF, (10) dABrP/dt=QBrCp−CBrP−PA∙CBrP−PA∙CBrT/PBr, (11) CBrP=ABrP/VBr∙VBrVF∙PF, (12) CBr=ABrT+ABrP/VBr, (13) where ABrT is the amount in the brain tissue, ABrP is the amount in the brain plasma, CBrP the concentration in the brain plasma, CBrT the concentration in the brain tissue subcompartment, CBr the concentration in the brain, Cp the plasma concentration, PA the permeability area product, PBr the brain-to-plasma partition coefficient, PF the plasma fraction of the blood, VBrVF the vascular volume fraction of the brain, VBr the volume of the brain, and QBr plasma flow to the brain.
Several scenarios were tested using this semi-PBPK model and brain concentration data to determine the mechanisms that best explain accumulation in the brain: 1) no permeability (i.e., PA = 0 L/h); 2) a perfusion-limited distribution (PA > 1,000,000 L/h) using the predicted PBr ([Poulin and Haddad, 2011]); 3) a perfusion-limited distribution with a low PBr (fitted); 4) a diffusion-limited distribution (fitted PA) using the predicted PBr; and 5) diffusion-limited distribution (fitted PA) and low PBr (fitted).
We used a semi-physiological three-compartment model to simulate the in vivo data (Figure 1). The parameters for the plasma and peripheral compartments were fitted to the plasma concentration at 40 mg/kg BW (Table 1; Figure 5B) ([Brown et al., 1997]; [Peyret et al., 2010]). Then, four scenarios were simulated assuming the following: a) perfusion-limited distribution with the predicted brain-to-plasma partition coefficient (PBr), b) as in a) with a low PBr, c) diffusion-limited distribution with the predicted PBr, and d) as in c) with low PBr, against the brain concentration data corrected for residual blood as explained in the Methods section. When assuming perfusion-limited distribution, the model could not simulate the observed data (Figure 5A), even when we adjusted for PBr. […] Thus, we propose that evacetrapib enters the brain in a diffusion-limited manner, which could include some form of facilitated transport.

[3] = system: CETP in human plasma; set-up: method as in Cao et al., 2011; conditions: ref Cao et al., 2011, read-out: IC50 of CETP inhibition; cited from earlier work
[4] = Rapid equilibrium dialysis, plasma on both sides of the membrane; type: in vitro ADME; conditions: after 24 h, preliminary data
Excerpt: One last factor we considered in this study was the mechanism by which evacetrapib is transported into brain tissue. To that effect, toxicokinetic parameters were derived from the blood and brain time courses, which indicate that the drug possibly requires some sort of transporter to reach peripheral compartments, such as the brain, and to clear from brain tissue. […] A possible explanation could be that evacetrapib enters the brain faster than it is cleared out of it, leading to a buildup in brain tissue. […] To determine which mechanisms are involved in evacetrapib distribution to the brain, a semi-PBPK model was developed (parameter values are in Table 1; Figure 5). To this end, we first aimed to determine the brain: plasma partition coefficient of evacetrapib using rapid equilibrium dialysis. […] This may be in line with our in vivo observations considering that only a small fraction of evacetrapib crossed the blood–brain barrier. However, the slow diffusion in our in vitro model is incongruent with the concentrations of evacetrapib found in the brain 2.2 h following intravenous injections. Thus, the implication of transporters cannot be excluded.

[5] = two-compartment model, fitted to plasma concentration at 40 mg/kg BW

Cc1cc(C)c2c(c1)[C@@H](N(Cc1cc(C(F)(F)F)cc(C(F)(F)F)c1)c1nnn(C)n1)CCCN2C[C@H]1CC[C@H](C(=O)O)CC1 [evacetrapib]
logP (octanol to water partition coefficient) [1]: 7.56 | Permeability area product (PA) ([2]; fitted, diffusion-limited distribution): 1.1e-05 L/h | Kp ([2]; male, hCETPtg (C57BL/6J background), mouse, intravenous, 40 mg/kg BW, fitted to brain concentrations corrected for residual blood, read-out: Brain:plasma partition coefficient (PBr)): 0.06 | k el ([2]; male, hCETPtg (C57BL/6J background), mouse, intravenous, two-compartment model, fitted to plasma concentration at 40 mg/kg BW, read-out: Elimination constant (Kel) (converted)): 0.000386 s⁻¹ | Apparent plasma volume (Vplasma) [2, 5]: 0.01 L | Peripheral to plasma transfer constant (K21) [2, 5]: 1.21 h⁻¹ | Plasma to peripheral transfer constant (K12) [2, 5]: 2.4 h⁻¹ | IC50 [3]: 0.036 µM | Fraction diffused across the dialysis membrane [4]: 2%
